Results reported in ChEMBL document CHEMBL2203157, “5-(1,3-Benzothiazol-6-yl)-4-(4-methyl-1,3-thiazol-2-yl)-1H-imidazole derivatives as potent and selective transforming growth factor-β type I receptor inhibitors” (Bioorg Med Chem, 2012).
≈ marks a conversion by molar mass, not a printed value.

Legend:
[1] = Solubility of the compound by HPLC analysis; assay type: physicochemical
[2] = biological target: T1, TGF-beta receptor type-1 (Homo sapiens, UniProt P36897); test: Inhibition of ALK5-mediated […]-induced Smad2/3 phosphorylation in human A549 cells preincubated for 2 hrs before addition of […] after 1 hr by fluorescence analysis; assay type: cell-based
T1 sequence (P36897 whole entry): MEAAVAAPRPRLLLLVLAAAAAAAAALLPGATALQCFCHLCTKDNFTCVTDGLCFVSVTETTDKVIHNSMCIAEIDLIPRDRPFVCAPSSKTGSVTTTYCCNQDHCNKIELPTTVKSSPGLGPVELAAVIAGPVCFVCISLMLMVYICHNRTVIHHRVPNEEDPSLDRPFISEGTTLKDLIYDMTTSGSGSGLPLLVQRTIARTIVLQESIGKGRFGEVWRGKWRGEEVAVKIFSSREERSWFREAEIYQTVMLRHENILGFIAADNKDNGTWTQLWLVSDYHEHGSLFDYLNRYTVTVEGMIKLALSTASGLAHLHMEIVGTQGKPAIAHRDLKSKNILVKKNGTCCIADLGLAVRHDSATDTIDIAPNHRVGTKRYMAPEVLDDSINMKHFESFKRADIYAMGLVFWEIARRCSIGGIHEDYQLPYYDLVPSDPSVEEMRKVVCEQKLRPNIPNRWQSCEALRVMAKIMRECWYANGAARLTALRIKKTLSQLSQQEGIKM

[3] = biological target: T1, TGF-beta receptor type-1; test: Inhibition of human ALK5 using GST-tagged Smad3 as substrate assessed as substrate phosphorylation after 30 mins by ELISA
[4] = biological target: Vascular endothelial growth factor receptor 2 (Homo sapiens, UniProt P35968); test: Inhibition of KDR
[5] = tested on: Mus musculus; test: Inhibition of ALK5-mediated Smad2 phosphorylation in skin of C57BL/6 mouse depilation model at 3% administered topically measured after 8 hrs by Western blot analysis; assay type: functional
[6] = tested on: Mus musculus; test: Inhibition of ALK5-mediated Smad2 phosphorylation in skin of C57BL/6 mouse depilation model at 1% administered topically measured after 8 hrs by Western blot analysis; assay type: functional

Chain of Vascular endothelial growth factor receptor 2 (P35968 whole entry): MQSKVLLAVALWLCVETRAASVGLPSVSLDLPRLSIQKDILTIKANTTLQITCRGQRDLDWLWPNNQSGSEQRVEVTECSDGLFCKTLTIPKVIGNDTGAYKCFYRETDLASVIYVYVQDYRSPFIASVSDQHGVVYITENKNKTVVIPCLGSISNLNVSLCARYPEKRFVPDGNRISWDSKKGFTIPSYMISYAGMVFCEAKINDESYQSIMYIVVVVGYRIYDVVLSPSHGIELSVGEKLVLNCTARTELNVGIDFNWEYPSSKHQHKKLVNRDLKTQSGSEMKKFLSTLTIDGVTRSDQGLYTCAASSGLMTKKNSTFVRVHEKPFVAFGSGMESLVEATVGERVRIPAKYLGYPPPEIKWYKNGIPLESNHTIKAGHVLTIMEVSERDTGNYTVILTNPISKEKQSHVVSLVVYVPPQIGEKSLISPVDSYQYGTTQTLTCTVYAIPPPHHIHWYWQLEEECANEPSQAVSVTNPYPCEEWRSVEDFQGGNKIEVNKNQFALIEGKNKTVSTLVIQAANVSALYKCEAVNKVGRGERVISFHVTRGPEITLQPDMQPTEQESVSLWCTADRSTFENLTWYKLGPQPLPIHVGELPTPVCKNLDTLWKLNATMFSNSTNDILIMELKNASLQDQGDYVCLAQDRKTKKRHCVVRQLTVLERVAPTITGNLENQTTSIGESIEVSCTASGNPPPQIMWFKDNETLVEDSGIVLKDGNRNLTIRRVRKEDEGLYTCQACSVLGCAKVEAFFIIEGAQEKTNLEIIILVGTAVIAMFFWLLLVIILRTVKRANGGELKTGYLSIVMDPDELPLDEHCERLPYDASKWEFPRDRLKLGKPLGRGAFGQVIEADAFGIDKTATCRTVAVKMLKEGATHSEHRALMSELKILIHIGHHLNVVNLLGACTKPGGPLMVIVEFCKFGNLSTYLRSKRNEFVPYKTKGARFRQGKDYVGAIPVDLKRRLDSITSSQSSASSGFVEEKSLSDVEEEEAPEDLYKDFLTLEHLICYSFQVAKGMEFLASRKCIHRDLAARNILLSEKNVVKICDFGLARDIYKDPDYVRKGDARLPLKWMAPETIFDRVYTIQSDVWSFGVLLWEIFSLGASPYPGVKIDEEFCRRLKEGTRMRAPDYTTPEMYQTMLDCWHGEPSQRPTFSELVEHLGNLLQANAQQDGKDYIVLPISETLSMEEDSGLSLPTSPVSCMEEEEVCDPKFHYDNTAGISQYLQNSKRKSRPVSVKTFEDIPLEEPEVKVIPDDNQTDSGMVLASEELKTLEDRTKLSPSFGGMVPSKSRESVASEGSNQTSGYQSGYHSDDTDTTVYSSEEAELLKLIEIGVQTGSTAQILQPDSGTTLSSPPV

Structure (SMILES)	solubility [1] [mg/mL]	IC50 [2] [nM]	IC50 [3] [nM]	IC50 [4] [nM]	inhibition (INH) [5] [%]	inhibition (INH) [6] [%]
Cc1csc(-c2nc(C(C)(C)C)[nH]c2-c2ccc3ncsc3c2)n1	3.49 (≈ 9.84 mM)	68	14			
CCCCCCc1nc(-c2nc(C)cs2)c(-c2ccc3ncsc3c2)[nH]1		120	7			
Cc1csc(-c2nc(C3CCC(=O)CC3)[nH]c2-c2ccc3ncsc3c2)n1		89	23			
Cc1csc(-c2nc(CC(C)C)[nH]c2-c2ccc3ncsc3c2)n1		43	9			
Cc1csc(-c2nc(C)[nH]c2-c2ccc3ncsc3c2)n1	18.3 (≈ 58.6 mM)	17	5.8			
Cc1csc(-c2nc(C3CCOCC3)[nH]c2-c2ccc3ncsc3c2)n1	26.1 (≈ 68.2 mM)	99	21			
CNC(=O)CCCc1nc(-c2nc(C)cs2)c(-c2ccc3ncsc3c2)[nH]1		230	37			
CCCCNCc1nc(-c2nc(C)cs2)c(-c2ccc3ncsc3c2)[nH]1		72	13			
CCCS(=O)(=O)NCc1nc(-c2nc(C)cs2)c(-c2ccc3ncsc3c2)[nH]1		150	17			
Cc1csc(-c2nc(C3CCCCC3)[nH]c2-c2ccc3ncsc3c2)n1	> 31.8	75	12			
Cc1csc(-c2nc(C(F)(F)F)[nH]c2-c2ccc3ncsc3c2)n1	2.4 (≈ 6.55 mM)	49	5.8			
Cc1csc(-c2nc(CCCCC(N)=O)[nH]c2-c2ccc3ncsc3c2)n1		190	8.3			
Cc1csc(-c2nc(C3CCCC3)[nH]c2-c2ccc3ncsc3c2)n1	19.8 (≈ 54 mM)	40	8.7			
CC(=O)NCCCc1nc(-c2nc(C)cs2)c(-c2ccc3ncsc3c2)[nH]1		150	26			
Cc1csc(-c2nc(C3CC3)[nH]c2-c2ccc3ncsc3c2)n1	23.6 (≈ 69.7 mM)	45	8.8			
Cc1csc(-c2nc[nH]c2-c2ccc3ncsc3c2)n1		8.7	2.7			
Cc1csc(-c2nc(CN3CCOC3=O)[nH]c2-c2ccc3ncsc3c2)n1		92	8.1			
Cc1csc(-c2[nH]c(CN3CCCC3=O)nc2-c2ccc3ncsc3c2)n1		130	26			
CCCC(=O)CCc1nc(-c2nc(C)cs2)c(-c2ccc3ncsc3c2)[nH]1		42	9			
Cc1csc(-c2nc(C(C)C)[nH]c2-c2ccc3ncsc3c2)n1		48	8.2			
Cc1csc(-c2nc(C3CCNCC3)[nH]c2-c2ccc3ncsc3c2)n1			240			
CCCCNC(=O)c1nc(-c2nc(C)cs2)c(-c2ccc3ncsc3c2)[nH]1		420	45			
CCCC(=O)N(C)Cc1nc(-c2ccc3ncsc3c2)c(-c2nc(C)cs2)[nH]1		110	28			

Now from value to molecule, other results behind:

solubility [1] [mg/mL]	IC50 [2] [nM]	IC50 [3] [nM]	IC50 [4] [nM]	Structure (SMILES)	inhibition (INH) [5] [%]	inhibition (INH) [6] [%]
	35	9		CCc1nc(-c2nc(C)cs2)c(-c2ccc3ncsc3c2)[nH]1		
	74	9.1		CCCCOC(=O)NCc1nc(-c2nc(C)cs2)c(-c2ccc3ncsc3c2)[nH]1		
	35	4.5		CCOC(=O)NCc1nc(-c2nc(C)cs2)c(-c2ccc3ncsc3c2)[nH]1		
	71	12		CCNC(=O)CCc1nc(-c2nc(C)cs2)c(-c2ccc3ncsc3c2)[nH]1		
18.2 (≈ 44 mM)	41	8.6		Cc1csc(-c2nc(CNC(=O)OC(C)C)[nH]c2-c2ccc3ncsc3c2)n1		
14.9 (≈ 43.8 mM)	33	8.1		CCCc1nc(-c2nc(C)cs2)c(-c2ccc3ncsc3c2)[nH]1		
	140	11		CCCCCOC(=O)NCc1nc(-c2nc(C)cs2)c(-c2ccc3ncsc3c2)[nH]1		
	79	9.3		Cc1csc(-c2nc(CNC(=O)OCC(C)(C)C)[nH]c2-c2ccc3ncsc3c2)n1		
	130	25		CCC(=O)NCCc1nc(-c2nc(C)cs2)c(-c2ccc3ncsc3c2)[nH]1		
	93	7.2		CCNC(=O)OCc1nc(-c2nc(C)cs2)c(-c2ccc3ncsc3c2)[nH]1		
9.8 (≈ 23.7 mM)	36	7.3		CCCOC(=O)NCc1nc(-c2nc(C)cs2)c(-c2ccc3ncsc3c2)[nH]1		
3.93 (≈ 10.2 mM)	38	7.7		COC(=O)NCc1nc(-c2nc(C)cs2)c(-c2ccc3ncsc3c2)[nH]1		
	130	11		CCNC(=O)NCc1nc(-c2nc(C)cs2)c(-c2ccc3ncsc3c2)[nH]1		
	36	5.5	1080	Cc1csc(-c2nc(CNC(=O)OCC(C)C)[nH]c2-c2ccc3ncsc3c2)n1	90	59
